“Also recorded” adds a separate entry of the source. Where two headings read alike, the source gives them in different places.
Legend:
[1] = tested on: A549 cells; details: human, 24 h
[2] = tested on: influenza virus; experiment: Viral entry assay, influenza virus; type: cell-based; details: viral entry assays
[3] = tested on: VSV; type: cell-based, Vesicular Stomatitis virus; details: viral entry assays
[4] = tested on: retrovirus MLV; experiment: Viral entry assay, retrovirus MLV; type: cell-based; details: viral entry assays
[5] = tested on: A549 cells; experiment: Cell viability (cytotoxicity) in A549 cells; details: A549
[6] = tested on: Sendai Virus 52; experiment: Sendai virus replication in A549 cells; type: cell-based; details: A3 10 μM, 24 h
[7] = tested on: Vesicular Stomatitis virus; type: cell-based; details: A549
[8] = tested on: Sindbis virus; experiment: Sindbis virus replication in A549 cells; type: cell-based; details: 10 μM A3 or less
[9] = tested on: Hepatitis C virus; type: cell-based; details: 10 μM A3 or less
[10] = tested on: Vaccinia Virus (NYVAC); type: cell-based; details: 10 μM A3 or less
[11] = tested on: human adenovirus 5 (hAd5); type: cell-based; details: 10 μM A3 or less
[12] = tested on: HIV-1 (NL4-3); experiment: microbe, parasite or virus in culture; type: cell-based
[13] = tested on: influenza virus polymerase (PB1, PB2, PA, NP); type: cell-based, influenza A/WSN/33 virus; details: for inhibition of viral RNA polymerase activity: mini-genome reporter construct
[14] = tested on: influenza A/PR/8/34 virus v-, c-, and mRNA (NA segment); details: concentration of 2 μM
[15] = tested on: influenza viral proteins (NP, M1, and M2); type: cell-based, influenza A/WSN/33 virus; details: A549; A/WSN/33; in the presence of A3
[16] = tested on: influenza virus; type: cell-based; details: primary screen
[17] = tested on: influenza A/WSN/33 virus; experiment: Plaque-reduction assays with influenza A/WSN/33 virus in cell lines of different species, with or without pyrimidine supplements
[18] = tested on: cellular gene expression (Renilla luciferase)
[19] = tested on: cellular 5S rRNA; details: concentration of 2 μM
[20] = in vitro; details: mouse
[21] = in vitro; details: human
[22] = Cell viability (cytotoxicity) in A549 cells; details: human, A549 cells
[23] = target: Human dihydroorotate dehydrogenase (DHODH) (Homo sapiens, UniProt Q02127); experiment: In vitro colorimetric DHODH assay (DCIP reduction); details: final concentration of 10 μM; 60 mins
[24] = tested on: Newcastle Disease virus; type: cell-based; details: concentration of 11.2 μM; NDV/B1; A549
[25] = in vitro; details: human; remark: listed apart in the source
[26] = read-out: CC50 (A549), 24 hour period, Table 3

Chain of Human dihydroorotate dehydrogenase (DHODH) (Q02127 whole entry): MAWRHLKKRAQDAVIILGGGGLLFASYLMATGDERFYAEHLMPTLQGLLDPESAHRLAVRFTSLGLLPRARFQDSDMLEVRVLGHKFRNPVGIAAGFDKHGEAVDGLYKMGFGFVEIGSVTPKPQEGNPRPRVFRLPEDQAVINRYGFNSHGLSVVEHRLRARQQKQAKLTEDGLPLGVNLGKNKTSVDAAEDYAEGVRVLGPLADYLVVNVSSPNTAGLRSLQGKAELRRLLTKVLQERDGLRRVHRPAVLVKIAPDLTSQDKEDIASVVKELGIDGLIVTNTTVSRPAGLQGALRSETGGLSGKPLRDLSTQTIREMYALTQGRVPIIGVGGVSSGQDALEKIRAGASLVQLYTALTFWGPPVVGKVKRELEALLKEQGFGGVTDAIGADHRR

Structure (SMILES): CCN(CC)C(=O)CSc1nnc(-c2ccc3[nH]c(C)c(C)c3c2)o1 [Compound A3-2, 2-(5-(2,3-dimethyl-1H-indol-5-yl)-1,3,4-oxadiazol-2-ylthio)-N,N-diethylacetamide]
- CC10 (A549) [1]: 29 µM

Structure (SMILES): COc1ccc(-c2nnc(SCC(=O)N3CCCC3)o2)cc1 [Compound A3-8, 2-(5-(4-methoxyphenyl)-1,3,4-oxadiazol-2-ylthio)-1-(pyrrolidin-1-yl)ethanone]
- CC10 (A549) [1]: 11.8 µM

Structure (SMILES): Cc1[nH]c2ccc(-c3nnc(SCC(=O)N4CCCCCC4)o3)cc2c1C [Compound A3-6, 1-(azepan-1-yl)-2-(5-(2,3-dimethyl-1H-indol-5-yl)-1,3,4-oxadiazol-2-ylthio)ethanone]
- CC10 (A549) [1]: 18.2 µM

Structure (SMILES): CN(Cc1ccccc1)c1nc(-c2ccc([N+](=O)[O-])cc2)cs1 [Compound A35-1]
- CC10 (A549) [1]: 10.8 µM

Structure (SMILES): COc1cc2c(O)c3c(c(-c4ccc5c(c4)OCO5)c2cc1OC)C(=O)OC3 [Compound C2]
- viral entry of influenza virus [2]: inhibited
- entry of VSV [3]: inhibited
- entry of the retrovirus MLV [4]: unaffected
- CC50 [5]: 131 µM

Structure (SMILES): Nc1nc(-c2ccc(Cl)cc2)cs1 [Compound A35-3]
- CC10 (A549) [1]: 11.4 µM

Structure (SMILES): Cc1[nH]c2ccc(-c3nnc(SCC(=O)N4CCOCC4)o3)cc2c1C [Compound A3-5, 2-(5-(2,3-dimethyl-1H-indol-5-yl)-1,3,4-oxadiazol-2-ylthio)-1-morpholinoethanone]
- CC10 (A549) [1]: 10.2 µM

Structure (SMILES): Cc1[nH]c2ccc(-c3nnc(SCC(=O)N4CCCC4)o3)cc2c1C [Compound A3]
- inhibition of Sendai virus (SV52) [6]: 3 logs
- titer of vesicular stomatitis virus decreased ([7]; 10 μM A3 or less): 5 logs
- inhibition of Sindbis virus [8]: 2 logs
- inhibition of hepatitis C virus [9]: 2 logs
- sensitivity of vaccinia virus [10]: sensitive
- sensitivity of adenovirus [11]: sensitive
- sensitivity of HIV-1 ([12]; 10 μM A3 or less): sensitive
- IC50 ([12]; Human immunodeficiency virus 1, NL43, TZM-bl, 48 h, read-out: IC50 against HIV-1 (NL4-3)): 0.205 µM
- time of addition at which compound remains active ([12]; time-of-addition, TZM-bl, HIV-1 MOI=0.1, A3 at 1 μM): ≤ 12 h after infection
- inhibition of influenza virus polymerase function ([13]; compared with the DMSO control, A3 at its CC10): 98%
- inhibition of viral RNA polymerase activity ([13]; at 10 μM): up to 99%
- potency relative to ribavirin ([13]; same degree of inhibition by 2 μM A3 as with 100 μM ribavirin): 50 times
- viral entry of influenza virus [2]: did not inhibit viral entry
- production of all three viral RNA species (v-, c-, and mRNA) [14]: fully inhibit
- levels of viral proteins [15]: reduced levels of viral proteins
- luminescence signal of influenza virus inducible firefly luciferase reporter [16]: no luminescence detectable
- inhibition of viral replication [17]: strong inhibition; also recorded: complete inhibition
- inhibition of viral replication ([17]; baby hamster kidney (BHK) cells and pig kidney (PK-15) cells, A3 10 μM): partially inhibited
- effect of orotic acid on the inhibition by A3 ([17]; both A549 and MDCK cells): reverse the inhibition
- effect on viral replication ([17]; chicken fibroblast (DF-1) cells, A3 10 μM): no effect
- CC10 (A549) [1]: 38 µM
- cellular gene expression as monitored by Renilla luciferase activity ([18]; A3 at its CC10): without affecting cellular gene expression
- overall host cell replication machinery (renilla luciferase control plasmid expression) ([18]; all A3 concentrations (0.4-30 μM)): not affected
- levels of cellular 5S rRNA [19]: without decreasing levels
- CC50 [20]: > 100 µM
- CC50 [21]: > 100 µM
- CC50 at 24 h [22]: 268 µM
- DHODH activity in vitro [23]: Inhibits DHODH Activity

Structure (SMILES): O=C(CSc1nnc(-c2ccncc2)o1)N1CCCC1 [Compound A3-12, 2-(5-(pyridin-4-yl)-1,3,4-oxadiazol-2-ylthio)-1-(pyrrolidin-1-yl)ethanone]
- CC10 (A549) [1]: 11.5 µM

Structure (SMILES): Cc1[nH]c2ccc(-c3nnc(SCC(=O)N(C(C)C)C(C)C)o3)cc2c1C [Compound A3-4, 2-(5-(2,3-dimethyl-1H-indol-5-yl)-1,3,4-oxadiazol-2-ylthio)-N,N-diisopropylacetamide]
- CC10 (A549) [1]: 10.7 µM

Structure (SMILES): CN(c1nc(-c2ccccc2)cs1)C1CCS(=O)(=O)C1 (stereo not shown) [Compound A35-2]
- CC10 (A549) [1]: 12.2 µM

Structure (SMILES): CCN(CC)S(=O)(=O)c1ccc(-c2nnc(SCC(=O)N3CCCC3)o2)cc1 [Compound A3-1, N,N-diethyl-4-(5-(2-oxo-2-(pyrrolidin-1-yl)ethylthio)-1,3,4-oxadiazol-2-yl)benzenesulfonamide]
- CC10 (A549) [1]: 17.3 µM

Structure (SMILES): O=C(CSc1nnc(-c2cccnc2)o1)N1CCCC1 [Compound A3-11, 2-(5-(pyridin-3-yl)-1,3,4-oxadiazol-2-ylthio)-1-(pyrrolidin-1-yl)ethanone]
- CC10 (A549) [1]: 32.6 µM

Structure (SMILES): NC(=O)c1ncn([C@@H]2O[C@H](CO)[C@@H](O)[C@H]2O)n1 [ribavirin, reference compound]
- inhibition of viral RNA polymerase activity ([13]; at 100 μM): 90%

Structure (SMILES): CN(c1ccc(O)cc1)c1nc(-c2ccc(Cl)cc2)cs1 [Compound A35-4]
- CC10 (A549) [1]: 6 µM
- CC50 [5, 26]: 30 µM

Structure (SMILES): O=C(CSc1nnc(-c2cc3ccccc3o2)o1)N1CCCC1 [Compound A3-9, 2-(5-(benzofuran-2-yl)-1,3,4-oxadiazol-2-ylthio)-1-(pyrrolidin-1-yl)ethanone]
- CC10 (A549) [1]: 10.9 µM

Structure (SMILES): CN(c1nc(-c2ccc(Br)cc2)cs1)C1CCS(=O)(=O)C1 (stereo not shown) [Compound A35]
- inhibition of NDV [24]: less significant inhibition
- inhibition of VSV ([7]; concentration of 11.2 μM): less significant inhibition
- viral entry of influenza virus [2]: did not affect the entry step
- CC10 (A549) [1]: 11.2 µM
- CC50 at 24 h [25]: 110 µM

Structure (SMILES): CN(C)c1nc(-c2ccc(Br)cc2)cs1 [Compound A35-5]
- CC10 (A549) [1]: 17.8 µM
- CC50 at 24 h [25]: 242 µM

Structure (SMILES): O=C(CSc1nnc(-c2cc3ccccc3[nH]2)o1)N1CCCC1 [Compound A3-7, 2-(5-(1H-indol-2-yl)-1,3,4-oxadiazol-2-ylthio)-1-(pyrrolidin-1-yl)ethanone]
- CC10 (A549) [1]: 15.2 µM

Structure (SMILES): Cc1[nH]c2ccc(-c3nnc(SCC(=O)N4CCc5ccccc54)o3)cc2c1C [Compound A3-3, 2-(5-(2,3-dimethyl-1H-indol-5-yl)-1,3,4-oxadiazol-2-ylthio)-1-(indolin-1-yl)ethanone]
- CC10 (A549) [1]: 8.5 µM
- CC50 [5, 26]: 65 µM

Structure (SMILES): Cc1oncc1C(=O)Nc1ccc(C(F)(F)F)cc1 [Leflunomide, reference compound]
- effect on influenza virus replication ([17]; A549 and MDCK cells, concentration of 10 μM): No inhibition
